Measurements: ChEMBL document CHEMBL1147625, “HIV-1 integrase pharmacophore model derived from diverse classes of inhibitors” (Bioorg Med Chem Lett, 2004)

Target: Human immunodeficiency virus type 1 integrase (Human immunodeficiency virus 1, UniProt Q7ZJM1)
Sequence (Q7ZJM1 whole entry): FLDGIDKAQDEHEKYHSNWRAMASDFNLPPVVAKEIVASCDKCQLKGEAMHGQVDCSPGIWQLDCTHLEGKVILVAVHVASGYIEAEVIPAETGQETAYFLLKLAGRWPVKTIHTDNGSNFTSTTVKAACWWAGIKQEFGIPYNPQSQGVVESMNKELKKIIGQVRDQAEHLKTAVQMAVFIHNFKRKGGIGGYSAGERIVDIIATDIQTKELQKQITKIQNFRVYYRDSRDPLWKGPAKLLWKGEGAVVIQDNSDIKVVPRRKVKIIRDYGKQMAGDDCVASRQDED
Description: Inhibitory activity against HIV-1 integrase

Going from `CC1=NN(C(=O)c2ccc(Cl)cc2)C(=O)/C1=C\c1ccc(O)cc1` to `COc1ccc(/C=C2\C(=O)N(C(=O)c3ccccc3O)N=C2C)cc1`, the IC50 falls from greater than 293 µM to 0.6 µM. The second is the more potent here.

Compared with `O=C(NNCC(O)COc1ccccc1)c1ccccc1O` (stereo not drawn), `O=C(O)C(=O)/C=C(\O)c1cc(OCc2ccccc2)cc(OCc2ccccc2)c1` is lower in IC50: greater than 200 µM for the first, 0.059 µM for the second.

`CC1C=C(NC(=O)C2=CC(NC(=O)C3=CC(NC(=O)c4ccc(C(=O)NC5=CC(C)C(C(=O)NC6=CC(C)C(C(=O)NC7=CC(C)C(C(=O)NCCC(=N)N)=C7)=C6)=C5)cc4)=CC3C)=CC2C)C=C1C(=O)NCCC(=N)N` (stereo not drawn) and `CC1C=C(NC(=O)C2=CC(NC(=O)C3=CC(NC(=O)c4ccc(C(=O)NC5=CC(C)C(C(=O)NC6=CC(C)C(C(=O)NC7=CC(C)C(C(=O)NCCC(=N)N)=C7)=C6)=C5)nc4)=CC3C)=CC2C)C=C1C(=O)NCCC(=N)N` (stereo not drawn) are within 1.5-fold of each other in IC50: 0.09 µM for the first, 0.1 µM for the second.

First: O=C1C(O)=C(C(C2=C(O)C(=O)c3ccccc3C2=O)c2ccc(Cl)cc2)C(=O)c2ccccc21
Second: COc1cc(C(C2=C(O)C(=O)c3ccccc3C2=O)C2C(=O)c3ccccc3C(=O)C2O)cc(Br)c1O (stereo not drawn)
The IC50 of the first is higher: greater than 100 µM for the first, 20 µM for the second.

First: CC(Cc1ccc(O)c(O)c1)(C(=O)O)C(C)(Cc1ccc(O)c(O)c1)C(=O)O (stereo in doubt; form 2)
Second: O=C(/C=C/c1ccc(O)c(O)c1)NCC(OC(=O)/C=C/c1ccc(O)c(O)c1)C(=O)O (stereo not drawn)
The IC50 of the first is 1.6-fold lower: 0.23 µM for the first, 0.37 µM for the second. The first is the more potent here.

First: N#CCCc1cccc(/C(O)=C\C(=O)C(=O)O)c1
Second: [N-]=[N+]=NCc1ccc(/C(O)=C\C(=O)C(=O)O)cc1CN=[N+]=[N-]
The IC50 of the first is 5.8-fold higher: 1.5 µM for the first, 0.26 µM for the second.

`[N-]=[N+]=NC1CC(N=[N+]=[N-])c2cc(/C(O)=C\C(=O)C(=O)O)ccc21` (stereo not drawn) and `[N-]=[N+]=NC1CCC(N=[N+]=[N-])c2cc(/C(O)=C\C(=O)C(=O)O)ccc21` (stereo not drawn) are within 1.5-fold of each other in IC50: 0.36 µM for the first, 0.32 µM for the second.

Going from `CC1=NN(C(=O)c2ccccc2O)C(=O)/C1=C\c1cccc(O)c1` to `COC(=O)c1ccc(CC(=O)c2c(C)cc(O)c(C=O)c2O)c(C)c1O`, the IC50 rises from 7.4 µM to 123 µM (17-fold). The first is the more potent here.

Compared with `CC1C=C(NC(=O)C2=CC(NC(=O)C3=CC(N(C)C(=O)c4ccc(C(=O)N(C)C5=CC(C)C(C(=O)NC6=CC(C)C(C(=O)NC7=CC(C)C(C(=O)NCCCN(C)C)=C7)=C6)=C5)cc4)=CC3C)=CC2C)C=C1C(=O)NCCCN(C)C` (stereo not drawn), `CC(CCC(=O)O)C1CC[C@H]2[C@@H]3C(OC(=O)/C=C/c4ccc(O)c(O)c4)CC4CC(OC(=O)/C=C/c5ccc(O)c(O)c5)CC[C@]4(C)[C@H]3CC(OC(=O)/C=C/c3ccc(O)c(O)c3)[C@]12C` (stereo partly drawn) is 14-fold higher in IC50: 0.07 µM for the first, 0.97 µM for the second. The first is the more potent here.

First: COc1cc(C)c2c(c1C)OC(=O)c1c(C)c(Cl)c(O)c(C=O)c1O2
Second: CCCCCc1cc(O)cc2c1Oc1c(C=O)c(O)c(Cl)c(C(=O)CCCC)c1C(=O)O2
The IC50 of the first is 16-fold lower: 2.1 µM for the first, 33.6 µM for the second.

Going from `CC(Cc1ccc(O)c(O)c1)(C(=O)O)C(C)(Cc1ccc(O)c(O)c1)C(=O)O` (stereo in doubt; form 1) to `CN(C)Cc1ccc2n1Cc1ccccc1SC2c1ccc(F)cc1` (stereo not drawn), the IC50 rises from 0.44 µM to 1000 µM (2300-fold).

With `O=C1c2ccccc2SCC2CSC(c3ccccc3)N12` (stereo not drawn) the IC50 was 322 µM.
